This assay relates to clone 45.1 (GDE2). Put plainly: Reverse Northern blot of ventral spinal cord explants grown with or without retinol (differential subtraction screen). The format is cell-based, chick. The following applies: explants exposed to retinol, compared with GAPDH. The protocol:
Ventral neural explants were dissected from brachial level HH St17 chick embryos and cultured as described previously for 18 hours (1). The screen was designed to maximize isolation of genes responsive to motor neuron-derived retinoids however genes responsive to paraxial mesoderm-derived retinoids would also have been included. RNA from 100 explants was isolated using Trizol (GIBCO-BRL). cDNAs were generated and amplified using the Marathon cDNA PCR Amplification kit (Stratagene) and the subtraction procedure carried out using the Stratagene PCR Select Suppression kit. Reverse Northern blot analysis was performed as described in the latter kit.
Spinal motor neuron generation in the chick requires the integration of three different extrinsic signals: sonic hedgehog, fibroblast growth factors, and retinoic acid (RA) (2, 3). All three signaling pathways have been implicated in initial dorsal-ventral patterning of progenitor domains in the spinal cord (FIG. 1A). However, RA signaling is also necessary for the induction of Oligodendrocyte transcription factor 2 (Olig2) in progenitors, and their subsequent differentiation into postmitotic motor neurons (FIG. 1A) (2). […]

One molecule from patent US20100319073A1, “GDE Compositions and Methods” (The Johns Hopkins University, priority 2005, published 2010) can be followed below.

Regarding `CC1=C(/C=C/C(C)=C/C=C/C(C)=C/CO)C(C)(C)CCC1` [retinol], the “increase in expression of clone 45.1” value is “approximately 50 fold”.
